Structures can show the parent of a compound that is named as a salt.
Tests used:
[1] = Surface Plasmon Resonance determination of Lipid II binding; details: SPR, immobilized 3-LII, compounds at 10 μM
Description: Short-chain water-soluble LII containing a lipid tail of three isoprene units (3-LII) was generated and purified essentially according to methods known in the art. See Breukink et al., Lipid II is an intrinsic component of the pore induced by nisin in bacterial membranes. J. Biol. Chem. 278(22):19898-19903, 2003, the contents of which are hereby incorporated by reference. Typically, M. flavus vesicles (120 μmol lipid-Pi) were incubated together with 500 μmol UDP-GlcNAc, 500 μmol UDP-MurNAC-pentapeptide and 400 μmol farnesyl phosphate in 100 mM Tris-HCl pH 8.0, 5 mM MgCl2. The incubation period was approximately two hours at room temperature for 3-LII (3-P). The synthesis of 3-Lipid II was followed by RP-8 reversed phase TLC (Merck™) developed with 75% methanol. For purification, the membranes were removed by centrifugation at 40,000×g; the supernatant was collected and loaded on a C18 HPLC column and eluted with a linear gradient from 50 mM ammonium bicarbonate to 100% methanol in 30 minutes. Farnesyl-Lipid II (3-Lipid II) eluted at approximately 60% methanol. Its identity was confirmed by mass spectroscopy.
Surface Plasmon Resonance binding experiments were carried out on a BIAcore T100 system (BIAcore™ Inc., Piscataway, N.Y.) at 25° C. The assay buffer was 10 mM HEPES, 150 mM NaCl, 0.05% surfactant P20, pH 7.4 (+3 mM EDTA) supplemented with 10% DMSO. 3-Lipid II (50 RUs) was immobilized on CMS sensor chips using the amine-coupling chemistry recommended by the manufacturer. For initial determination of binding, compounds were introduced into the flow-cells (30.mu·1/min) in the running buffer at 10 μM. Resonance signals were corrected for nonspecific binding by subtracting the background of the control flow-cell. Binding to immobilized 3-LII on the chip surface was determined and scored “yes” in Table 5 when more than 20 Resonance Units or RUs were detected. Detection of less than 20 RUs was scored as “no”, meaning no significant binding to LII. After each analysis, the sensor chip surfaces were regenerated with 50 mM NaOH for 30 seconds at a flow rate 100 μL/min, and equilibrated with the buffer prior to next injection. For binding kinetics studies, binding isotherms were analyzed with manufacturer-supplied software for BIAcore™ T100.

Staphylococcus aureus = assay: Antibacterial activity assay (MIC, broth dilution); type: cell-based; parameters: S. aureus Killing / Bacterial Killing S. aureus: unit not given here; details: for Bacterial Killing S. aureus: determined as in Example 1E (MIC); for MIC: Staphylococcus aureus, Table 16, CLSI M07-A10 dilution method, read-out: MIC S. aureus; for MIC SA: S. aureus USA300 (MRSA), average of two replicates
Enterococcus faecium = assay: Antibacterial activity assay (MIC, broth dilution); type: cell-based; parameters: Bacterial Killing E. faecium: unit: ug/mL; details: for Bacterial Killing E. faecium: determined as in Example 1E (MIC); for MIC: Enterococcus faecium, Table 16, CLSI M07-A10 dilution method, read-out: MIC E. faecium; for MIC EF: average of two replicates
Description: (§1) Determination of the Minimal Inhibitory Concentrations (MIC) by dilution was carried out by broth dilution according to CLSI standards. See CLSI, Methods for Dilution Antimicrobial Susceptibility Tests for Bacteria That Grow Aerobically; Approved Standard—Eighth Edition. 2009, the contents of which are hereby incorporated by reference. Briefly, the minimum inhibitory concentration MIC, is the lowest concentration of a compound that prevents visible growth of a bacterium, in other words at which it has bacteriostatic activity.
For these tests, cation-adjusted Mueller Hinton broth, containing 10% brain-heart infusion (BHI) was used. Concentrations (MIC) are given in μg/mL. The compound was […].
(§2) Compounds were tested for MIC by methods known in the art and described in CLSI, Methods for Dilution Antimicrobial Susceptibility Tests for Bacteria That Grow Aerobically; Approved Standard—Tenth Edition. CLSI document M07-A10. Wayne, Pa.: Clinical and Laboratory Standards Institute, 2015, which is hereby incorporated by reference for these methods.
(§3) Selected compounds also were tested by broth microdilution methods known in the art and described in CLSI, Methods for Dilution Antimicrobial Susceptibility Tests for Bacteria That Grow Aerobically; Approved Standard—Tenth Edition. CLSI document M07-A10. Wayne, Pa.: Clinical and Laboratory Standards Institute, 2015, which is hereby incorporated by reference. Structures of selected compounds in the tables are listed below.

Escherichia coli = assay: Antibacterial activity assay (MIC, broth dilution); type: cell-based; details: determined as in Example 1E (MIC)
Acinetobacter baumannii = assay: Antibacterial activity assay (MIC, broth dilution); type: cell-based; details: for MIC: Acinetobacter baumannii, Table 16, CLSI M07-A10 dilution method, read-out: MIC A. baumannii; for MIC AB: A. baumannii 2-2-2 (colistin-resistant clinical isolate), average of two replicates
Description: as §1, §2, §3

HeLa cells = assay: Cytotoxicity testing (CC50, MTS assay); details: HeLa cells

Row | SMILES | MIC (Acinetobacter baumannii) | MIC (Staphylococcus aureus) | MIC (Enterococcus faecium) | also measured
1 | CN(C)c1ccc(/C=C/c2cc(-c3ccc(Cl)cc3)cc(-c3ccc(Cl)cc3)[o+]2)cc1 [(E)-2,4-bis(4-chlorophenyl)-6-(4-(dimethylamino)styryl)pyrylium boron tetrafluoride salt] | – | – | – | Lipid II Binding [1]: yes (scored “yes” in Table 5 when more than 20 Resonance Units or RUs were detected); S. aureus Killing (Staphylococcus aureus; anti-bacterial activity (MIC), strain not stated): 32
2 | CN1/C(=C/C=C/c2cc(-c3ccc(Cl)cc3)cc(-c3ccc(Cl)cc3)[o+]2)C(C)(C)c2ccccc21 [Compound 7jc42-1] | – | – | – | Bacterial Killing S. aureus (Staphylococcus aureus): 8; Bacterial Killing E. faecium (Enterococcus faecium): 32; Bacterial Killing E. coli (Escherichia coli): >64
3 | CN1/C(=C/C=C/c2cc(-c3ccc(Br)cc3)cc(-c3ccc(Br)cc3)[o+]2)C(C)(C)c2ccccc21 [Compound 7jc42-2] | – | – | – | Bacterial Killing S. aureus (Staphylococcus aureus): 32; Bacterial Killing E. faecium (Enterococcus faecium): 32; Bacterial Killing E. coli (Escherichia coli): >64
4 | CN(C)c1ccc(/C=C/c2cc(-c3cccc(F)c3)cc(-c3cccc(F)c3)[o+]2)cc1 [Compound 7jc46-1] | – | – | – | Bacterial Killing S. aureus (Staphylococcus aureus): 1; Bacterial Killing E. faecium (Enterococcus faecium): 2; Bacterial Killing E. coli (Escherichia coli): >64
5 | CN(C)c1ccc(/C=C/C=C/c2cc(-c3ccc(F)cc3)cc(-c3ccc(F)cc3)[o+]2)cc1 [Compound 7jc47-2] | – | – | – | Bacterial Killing S. aureus (Staphylococcus aureus): 1; Bacterial Killing E. faecium (Enterococcus faecium): 1; Bacterial Killing E. coli (Escherichia coli): >64
6 | COc1cc(-c2cc(/C=C/c3ccc(N(C)C)cc3)[n+](C)c(-c3ccc(Br)cc3)c2)cc(OC)c1Br.[I-] [Compound 9y1, (E)-4-(4-bromo-3,5-dimethoxyphenyl)-2-(4-bromophenyl)-6-(4-(dimethyl-amino)styryl)-1-methylpyridin-1-ium iodide] | 16 µg/mL | 2 µg/mL | 8 µg/mL | –
7 | CCN(CC)c1ccc(/C=C/c2cc(-c3cc(OC)c(Br)c(OC)c3)cc(-c3ccc(Br)cc3)[n+]2C)cc1.[I-] [Compound 9y2, (E)-4-(4-bromo-3,5-dimethoxyphenyl)-2-(4-bromophenyl)-6-(4-(diethylamino)-styryl)-1-methylpyridin-1-ium iodide] | 8 µg/mL | 1 µg/mL | 4 µg/mL | –
8 | COc1cc(-c2cc(/C=C/c3ccc(N(C)CCO)cc3)[n+](C)c(-c3ccc(Br)cc3)c2)cc(OC)c1Br.[I-] [Compound 9y3, (E)-4-(4-bromo-3,5-dimethoxyphenyl)-2-(4-bromophenyl)-6-(4-((2-hydroxy-ethyl)(methyl)amino)styryl)-1-methylpyridin-1-ium iodide] | 8 µg/mL | 4 µg/mL | 8 µg/mL | –
9 | COc1cc(-c2cc(/C=C/c3ccc(N(C)CCC#N)cc3)[n+](C)c(-c3ccc(Br)cc3)c2)cc(OC)c1Br.[I-] [Compound 9y4, (E)-4-(4-bromo-3,5-dimethoxyphenyl)-2-(4-bromophenyl)-6-(4-((2-cyano-ethyl)(methyl)amino)styryl)-1-methylpyridin-1-ium iodide] | 8 µg/mL | 4 µg/mL | 8 µg/mL | –
10 | CN(C)c1ccc(/C=C/c2cc(-c3ccc(Br)cc3Cl)cc(-c3ccc(Br)cc3)[n+]2C)cc1.[I-] [Compound 9z1, (E)-4-(4-bromo-2-chlorophenyl)-2-(4-bromophenyl)-6-(4-(dimethylamino)-styryl)-1-methylpyridin-1-ium iodide] | 32 µg/mL | 4 µg/mL | 8 µg/mL | –
11 | CCN(CC)c1ccc(/C=C/c2cc(-c3ccc(Br)cc3Cl)cc(-c3ccc(Br)cc3)[n+]2C)cc1.[I-] [Compound 9z2, (E)-4-(4-bromo-2-chlorophenyl)-2-(4-bromophenyl)-6-(4-(diethylamino)-styryl)-1-methylpyridin-1-ium iodide] | 2 µg/mL | 0.5 µg/mL | 1 µg/mL | –
12 | CN(CCO)c1ccc(/C=C/c2cc(-c3ccc(Br)cc3Cl)cc(-c3ccc(Br)cc3)[n+]2C)cc1.[I-] [Compound 9z3, (E)-4-(4-bromo-2-chlorophenyl)-2-(4-bromophenyl)-6-(4-((2-hydroxyethyl)-(methyl)amino)styryl)-1-methylpyridin-1-ium iodide] | 16 µg/mL | 2 µg/mL | 4 µg/mL | –
13 | CN(CCC#N)c1ccc(/C=C/c2cc(-c3ccc(Br)cc3Cl)cc(-c3ccc(Br)cc3)[n+]2C)cc1.[I-] [Compound 9z4, (E)-4-(4-bromo-2-chlorophenyl)-2-(4-bromophenyl)-6-(4-((2-cyanoethyl)-(methyl)amino)styryl)-1-methylpyridin-1-ium iodide] | 32 µg/mL | 2 µg/mL | 4 µg/mL | –
14 | CN(C)c1ccc(/C=C/c2cc(-c3ccc(Br)cc3)cc(-c3ccc(Br)cc3)[n+]2C)cc1.[I-] [EL-2] | – | – | – | MIC SA (Staphylococcus aureus): 1 µg/mL; MIC EF (Enterococcus faecium; E. faecium EF1509 (VRE)): 1 µg/mL; MIC EF (Enterococcus faecium; text: E. faecium EF1509 (VRE), footnote: Enterococcus faecalis ATCC 1509): 1 µg/mL; MIC AB (Acinetobacter baumannii): 8 µg/mL; CC50 (HeLa cells; exposure 24 hour): 5 µg/mL; CC50 (HeLa cells; exposure 24 hours): 5 µg/mL
15 | CC(C)[n+]1c(/C=C/c2ccc(N(C)C)cc2)cc(-c2ccc(Br)cc2)cc1-c1ccc(Br)cc1.[I-] [EL-3] | – | – | – | MIC SA (Staphylococcus aureus): 2 µg/mL; MIC EF (Enterococcus faecium; E. faecium EF1509 (VRE)): 2 µg/mL; MIC AB (Acinetobacter baumannii): 16 µg/mL; CC50 (HeLa cells; exposure 24 hour): 9 µg/mL

Now from value to compound, other results behind:

Row | MIC (Acinetobacter baumannii) | SMILES | MIC (Staphylococcus aureus) | MIC (Enterococcus faecium) | also measured
16 | 16 µg/mL | Cc1ccc(-c2cc(-c3ccc(Br)cc3)cc(/C=C/c3ccc(N(C)CCO)cc3)[n+]2C)c(C)c1.[I-] [Compound 9t, (E)-4-(4-bromophenyl)-2-(2,4-dimethylphenyl)-6-(4-((2-hydroxyethyl)(methyl)-amino)styryl)-1-methylpyridin-1-ium iodide] | 0.5 µg/mL | 2 µg/mL | –
17 | 16 µg/mL | Cc1ccc(-c2cc(-c3ccc(Br)cc3)cc(/C=C/c3ccc(N(C)CCC#N)cc3)[n+]2C)cc1C.[I-] [Compound 9u, (E)-4-(4-bromophenyl)-2-(4-((2-cyanoethyl)(methyl)amino)styryl)-6-(3,4-dimethylphenyl)-1-methylpyridin-1-ium iodide] | 2 µg/mL | 8 µg/mL | –
18 | 8 µg/mL | Cc1ccc(-c2cc(-c3ccc(Br)cc3)cc(/C=C/c3ccc(N(C)C)cc3)[n+]2C)cc1C.[I-] [Compound 9w, (E)-4-(4-bromophenyl)-2-(4-(dimethylamino)styryl)-6-(3,4-dimethylphenyl)-1-methylpyridin-1-ium iodide] | 1 µg/mL | 4 µg/mL | –
19 | 16 µg/mL | Cc1ccc(-c2cc(-c3ccc(Br)cc3)cc(/C=C/c3ccc(N(C)CCO)cc3)[n+]2C)cc1C.[I-] [Compound 9x, (E)-4-(4-bromophenyl)-2-(3,4-dimethylphenyl)-6-(4-((2-hydroxyethyl)(methyl)-amino)styryl)-1-methylpyridin-1-ium iodide] | 1 µg/mL | 8 µg/mL | –

— patent US10941114B2, “Small molecule lipid II inhibitors” (University Of Maryland, Baltimore, priority 2015, dated 2021)
